Data from article PMC10946275, “New imidazole-2-thiones linked to acenaphythylenone as dual DNA intercalators and topoisomerase II inhibitors: structural optimization, docking, and apoptosis studies” (Journal of Enzyme Inhibition and Medicinal Chemistry, 2024).

Tests used:
calf thymus DNA (ctDNA) = assay: Terbium (Tb3+) luminescent biosensor detection of induced DNA damage; type: biochemical; conditions: for Tb luminescence enhancement (induced DNA damage): ctDNA incubated with compound 24 h, emission 545 nm, excitation 270 nm, compared with ctDNA-Tb mixture
Text: Luminescence studies were accomplished in order to examine the possible DNA interaction with the studied compounds. Many luminescent biosensors are reported in literature for studying the possibility of DNA interaction with small molecules. […] Figure 5 presents a schematic diagram for the fluorometric detection of the induced DNA damage using Tb biosensor. Tb^3+ ion in the Tb luminescent probe is a trivalent lanthanide cation having low intrinsic luminescence in aqueous solutions[45]^,[46]. When Tb biosensor is added to a solution of DNA, it interacts differently with double-stranded DNA (dsDNA) and single-stranded DNA (ssDNA). With dsDNA, Tb^3+ ions are electrostatically attracted to the negatively charged phosphate backbone of the DNA. […] Therefore, the assessed compound damages dsDNA, ssDNA sites would be formed opposite to the site of damage and Tb^3+ would directly coordinate to the unpaired nucleobases in this single-stranded site.
For investigating the DNA interaction potential of the fourteen studied compounds, calf thymus DNA (ctDNA) was incubated with each compound for 24 h and then Tb was added to each mixture. Doxorubicin (DOX), a commonly used reference for DNA damaging agent was used and treated the same condition as the studied compounds. Tb luminescent intensity was measured at λmax = 545 nm after excitation at λmax = 270 nm.
Several concentrations within the range of 0.1 pM–200.0 μM of each of the studied compounds were incubated with ctDNA for 24 h. After which, Tb solution was added to aliquots of such mixtures and the luminescence intensity was recorded. Figure 7 presents Tb luminescence intensity as a function of the compound concentration for various compound/ctDNA/Tb mixtures. At minimum concentration of the studied compounds, minimum Tb luminescence was recorded. This reflects that the DNA molecule is undamaged, intact and acquiring a double helical structure. In this conformation, Tb ions are electrostatically attracted to the negatively charged DNA-phosphate backbone showing no increase in its luminescence. For solutions with higher concentrations of compounds 5b, 5h, and 5j (Figure 7a,c,and d). Tb fluorescence increased proportionally with the concentration until a concentration of 100 and 60 μM for compounds 5b, 5h, and 5j, respectively, where no further increase in the fluorescence occurs. This reflects that more DNA damage is induced with increasing concentrations of the three compounds. At concentrations higher than 100 and 60 μM for compounds 5b, 5h, and 5j, respectively, Tb luminescence remains constant at high fluorescence levels. […] Table 1 illustrates the analytical parameters elucidated as shown in Figure 7 for the quantification of the induced DNA damage by the studied compounds. The linearity parameters were calculated from the calibration curve in Figure 7-inset in order to obtain the minimum concentration of the studied compounds that would induce DNA damage.
Fluorescence measurements: Fluorescence spectra were measured between 290 and 800 nm with excitation at 270 nm of 100 µL solutions in a 1 cm path length Suprasil quartz fluorescence cuvette.
The PerkinElmer LS 55 fluorescence spectrophotometer was used to measure the fluorescence. After 24 h of incubation in buffer solution (40 mM Tris, 10 mM NaCl, pH 7.5), aliquots of each DNA-Compound mixture were combined with TbCl3 to confirm DNA damage. The final concentrations were […] ctDNA, 3 mM TbCl3, and 50 µM of each compound in buffer solution (40 mM Tris, 10 mM NaCl, pH 7.5). Calf thymus DNA (ctDNA) was combined with various quantities of each substance, ranging from 0.1 pM to 200 µM, for the experiment. The ultimate concentrations of […] ctDNA and 3 mM were achieved by adding Tb3 + solution to the ctDNA/compound combinations in buffer solution (40 mM Tris, 10 mM NaCl, pH 7.5) after 24 h of incubation.[44]
All chemicals, solvents, media and kits were purchased from commercial suppliers. […]

[1] = test system: human colon cancer (HCT-116); assay: MTT cytotoxicity assay, HCT-116; type: cell-based; conditions: 24 h treatment, read-out: IC50 against HCT-116
Procedure: (§1) All chemicals, solvents, media and kits were purchased from commercial suppliers.
(§2) In vitro anticancer screening […]
(§3) against three cancer cell lines namely: hepatocellular carcinoma (HepG2), human breast adenocarcinoma (MCF-7) and human colon cancer (HCT -116) utilizing MTT assay2. Compounds […]
(§4) 5b and 5h were screened for their effects on the normal breast cell line MCF‐10a. Cells at a density of 1 × 104 were seeded in a 96‐well plate at 37°C for 48 hr under 5% CO2. After incubation, the cells were treated with different concentrations of the prepared molecules and incubated for 24 hr.
(§5) MTT dye was added after 24 h of drug treatment and incubated for 4 h at 37°C. Also, 100 μl of dimethyl sulphoxide was added to each well to dissolve the purple formazan formed. The color intensity of the formazan product, which represents the growth condition of the cells, was quantified using an enzyme‐linked immunosorbent assay (ELISA) plate reader at 570 nm. The experiments were carried out with at least three replicates and they were repeated at least three […]
(§6) *: Statistically significant at p ≤ 0.05
(§7) Means with any Common letter (a-e) are not significant (OR Means with totally Different letters (a-e) are significant)

[2] = test system: hepatocellular carcinoma (HepG2); assay: MTT cytotoxicity assay, HepG2; type: cell-based; conditions: Homo sapiens, 24 h treatment, read-out: IC50 against HepG2
Procedure: (§8) (Supplementary file). Compounds 5b and 5h were screened for their effects on the normal breast cell line MCF‐10a. Cells at a density of 1 × 104 were seeded in a 96‐well plate at 37 °C for 48 h under 5% CO2. After incubation, the cells were treated with different concentrations of the prepared molecules and incubated for 24 h. MTT dye was added after 24 h of drug treatment and incubated for 4 h at 37 °C. Also, 100 μl of dimethyl sulphoxide was added to each well to dissolve the purple formazan formed. The colour intensity of the formazan product, which represents the growth condition of the cells, was quantified using an enzyme‐linked immunosorbent assay (ELISA) plate reader at 570 nm. The experiments were carried out with at least three replicates and they were repeated at least three times.
as §1, §2, §3, §4, §5, §6, §7

MCF-7 cells [3] = assay: Annexin V-FITC/PI apoptosis induction analysis (flow cytometry); type: cell-based, human; conditions: MCF-7, compound at its IC50, 24 h
[4] = test system: human breast adenocarcinoma (MCF-7); assay: MTT cytotoxicity assay, MCF-7; type: cell-based
Procedure: as §8, §1, §2, §3, §4, §5, §6, §7

MCF-7 cells [5] = assay: Cell cycle analysis (DNA flow cytometry, PI)
Procedure: Cell cycle analysis: A FACS Calibur flow cytometer was used to measure the amount of DNA in the cell cycle analysis at 488 nm in accordance with the manufacturer’s recommendations. […] Cells were treated, rinsed twice, and then re-suspended in ice-cold PBS (phosphate buffer saline). After washing, 0.7 ml of 100% ethanol was added, and the mixture was then allowed to sit at 20 °C for 20 min. After washing, 500 μl of RNase was added, and then the mixture was incubated for 30 min. After that, PI was added, and the mixture was incubated without light for 30 min[22]^,[51].
3 Replica for each group Data was expressed using Mean ± SEM.
SEM: Standard error of mean
F: F for One way ANOVA test, Pairwise comparison bet. each 2 groups was done using Post Hoc Test (Tukey)
p: p value for comparing between the studied groups
p0: p value for comparing between Control and each other group
p1: p value for comparing between 5h and 5b
p2: p value for comparing between 5h and Dox
p3: p value for comparing between 5b and Dox
DNA content in the cell cycle analysis was quantified with the help ofa FACS Calibur flow
cytometer at 488 nm according to the manufacturer's instructions. Briefly, 2 × 10^5 cells/well were
cells were washed two times and resuspended in ice-cold phosphate buffer saline PBS. After
washing, 0.7 ml absolute ethanol was then added, followed by incubation at −20°C for 20 min.
After washing, 500 μl RNase was added, followed by incubation for 30 min. PI was then added,
followed by incubation for 30 min (light was avoided).

[6] = test system: normal breast cell line (MCF-10a); assay: MTT cytotoxicity assay, normal breast cell line MCF-10a; type: cell-based; conditions: Homo sapiens, 24 h treatment, read-out: IC50 against MCF-10a (normal cell)
Procedure: as §8, §4, §5, §6
Means with any Common letter (a-e) are not significant (OR Means with totally Different letters (a-e) are significant) Annexin V-FITC/PI Apoptosis Induction Analysis 3
Apoptosis detection in MCf-7 cells was assessed using BioVision® annexin‐V‐FITC apoptosis detection kit according to the manufacturer's instructions and quantified by flow cytometry at 488

[7] = MCF-7, compound at its IC50, 24 h, listed as Dox

O=C1C(=Nn2cc(-c3ccccc3)n(Cc3ccccc3)c2=S)c2cccc3cccc1c23 [5c, 2-((3-Benzyl-4-phenyl-2-thioxo-2,3-dihydro-1H-imidazol-1-yl)imino)-acenaphthylen-1(2H)-one]
melting point: 212 to 214 °C

C=CCn1c(-c2ccc3ccccc3c2)cn(N=C2C(=O)c3cccc4cccc2c34)c1=S [5n, 2-((3-Allyl-4-(naphthalen-2-yl)-2-thioxo-2,3-dihydro-1H-imidazol-1-yl)imino)-acenaphthylen-1(2H)-one]
melting point: 230 to 232 °C
Tb luminescence enhancement (induced DNA damage) (calf thymus DNA (ctDNA)): minimum enhancement

Cn1c(-c2ccc(Cl)cc2)cn(N=C2C(=O)c3cccc4cccc2c34)c1=S [5g, 2-((4–(4-Chlorophenyl)-3-methyl-2-thioxo-2,3-dihydro-1H-imidazol-1-yl)imino)-acenaphthylen-1(2H)-one]
melting point: 262 to 264 °C

COc1cccc(-n2c(-c3ccc(Cl)cc3)cn(N=C3C(=O)c4cccc5cccc3c45)c2=S)c1 [5j, 2-((4-(4-Chlorophenyl)-3-(3-methoxyphenyl)-2-thioxo-2,3-dihydro-1H-imidazol-1-yl)-imino)acenaphthylen-1(2H)-one]
melting point: 282 to 284 °C
IC50 [1]: 10.8 µM
IC50 [2]: 7.9 µM
Tb luminescence enhancement (induced DNA damage) (calf thymus DNA (ctDNA)): significant enhancement
Concentration at which Tb luminescence stops increasing (maximum DNA damage) (calf thymus DNA (ctDNA); ctDNA, 24 h incubation): 60 µM
LOD (limit of detection; minimum concentration inducing detectable damage in ctDNA) (calf thymus DNA (ctDNA); ctDNA, 24 h incubation): 12.7 nM
LOQ (limit of quantitation) (calf thymus DNA (ctDNA); ctDNA, 24 h incubation): 42.4 nM

COc1cccc(-n2c(-c3ccccc3)cn(N=C3C(=O)c4cccc5cccc3c45)c2=S)c1 [5e, 2-((3-(3-Methoxyphenyl)-4-phenyl-2-thioxo-2,3-dihydro-1H-imidazol-1-yl)imino)-acenaphthylen-1(2H)-one]
melting point: 212 to 214 °C
Tb luminescence enhancement (induced DNA damage) (calf thymus DNA (ctDNA)): significant enhancement
Concentration at which Tb luminescence stops increasing (maximum DNA damage) (calf thymus DNA (ctDNA); ctDNA, 24 h incubation): 80 µM
Concentration up to which no enhancement of Tb luminescence intensity occurs (calf thymus DNA (ctDNA); ctDNA, 24 h incubation): 20 µM
LOD (limit of detection; minimum concentration inducing detectable damage in ctDNA) (calf thymus DNA (ctDNA); ctDNA, 24 h incubation): 14.2 nM
LOQ (limit of quantitation) (calf thymus DNA (ctDNA); ctDNA, 24 h incubation): 46.9 nM

O=C1C(=Nn2cc(-c3ccccc3)n(C3CCCCC3)c2=S)c2cccc3cccc1c23 [5d, 2-((3-Cyclohexyl-4-phenyl-2-thioxo-2,3-dihydro-1H-imidazol-1-yl)imino)-acenaphthylen-1(2H)-one]
melting point: 192 to 194 °C

COc1cccc2c1C(=O)c1c(O)c3c(c(O)c1C2=O)C[C@@](O)(C(=O)CO)C[C@@H]3O[C@H]1C[C@H](N)[C@H](O)[C@H](C)O1 [doxorubicin, reference compound]
Apoptosis results: Early apoptosis (MCF-7 cells [3]): 8.3 ± 0.53%
Apoptosis results: Late apoptosis (MCF-7 cells [3]): 31.3 ± 0.62%
Apoptosis results: Total (MCF-7 cells [3]): 46.2 ± 0.53%
Apoptosis results: Early apoptosis (MCF-7 cells [3]; listed as Dox): 8.3 ± 0.53%
Apoptosis results: Late apoptosis (MCF-7 cells [3]; listed as Dox): 31.3 ± 0.62%
Apoptosis results: Necrosis (MCF-7 cells [3]; listed as Dox): 6.6 ± 0.61%
IC50 ([4]; Homo sapiens, MCF7, MTT, 24 h treatment, read-out: IC50 against MCF-7): 8.24 µM
Selectivity Index (SI) ([4]; against MCF-7, relative to normal MCF-10a): 3.9
Phase of cell cycle arrest (MCF-7 cells [5]; MCF-7, compound at its IC50): G1/S phase
Cell cycle arrest (%) G0-G1 (MCF-7 cells [5]; [7]): 63.5 ± 0.51%
Cell cycle arrest (%) G2/M (MCF-7 cells [5]; [7]): 2.4 ± 0.73%
Cell cycle arrest (%) S (MCF-7 cells [5]; [7]): 34.2 ± 0.22%
IC50 [6]: 32.4 µM
Tb luminescence enhancement (induced DNA damage) (calf thymus DNA (ctDNA)): significant enhancement
LOD (limit of detection; minimum concentration inducing detectable damage in ctDNA) (calf thymus DNA (ctDNA); ctDNA, 24 h incubation): 4.09 nM
LOQ (limit of quantitation) (calf thymus DNA (ctDNA); ctDNA, 24 h incubation): 13.7 nM

C=CCn1c(-c2ccc(Cl)cc2)cn(N=C2C(=O)c3cccc4cccc2c34)c1=S [5k, 2-((3-Allyl-4-(4-chlorophenyl)-2-thioxo-2,3-dihydro-1H-imidazol-1-yl)imino)-acenaphthylen-1(2H)-one]
melting point: 262 to 264 °C
Tb luminescence enhancement (induced DNA damage) (calf thymus DNA (ctDNA)): minimum enhancement

C=CCn1c(-c2ccccc2)cn(N=C2C(=O)c3cccc4cccc2c34)c1=S [5f, 2-((3-Allyl-4-phenyl-2-thioxo-2,3-dihydro-1H-imidazol-1-yl)imino)acenaphthylen-1(2H)-one]
melting point: 212 to 214 °C
Tb luminescence enhancement (induced DNA damage) (calf thymus DNA (ctDNA)): minimum enhancement

O=C1C(=Nn2cc(-c3ccc(Cl)cc3)n(Cc3ccccc3)c2=S)c2cccc3cccc1c23 [5i, 2-((3-Benzyl-4-(4-chlorophenyl)-2-thioxo-2,3-dihydro-1H-imidazol-1-yl)imino)-acenaphthylen-1(2H)-one]
melting point: 260 to 262 °C

Cn1c(-c2ccc3ccccc3c2)cn(N=C2C(=O)c3cccc4cccc2c34)c1=S [5l, 2-((3-Methyl-4-(naphthalen-2-yl)-2-thioxo-2,3-dihydro-1H-imidazol-1-yl)imino)-acenaphthylen-1(2H)-one]
melting point: 240 to 242 °C

O=C1C(=Nn2cc(-c3ccc4ccccc4c3)n(Cc3ccccc3)c2=S)c2cccc3cccc1c23 [5m, 2-((3-Benzyl-4-(naphthalen-2-yl)-2-thioxo-2,3-dihydro-1H-imidazol-1-yl)imino)-acenaphthylen-1(2H)-one]
melting point: 332 to 334 °C

Cn1c(-c2ccccc2)cn(N=C2C(=O)c3cccc4cccc2c34)c1=S [5a, 2-((3-Methyl-4-phenyl-2-thioxo-2,3-dihydro-1H-imidazol-1-yl)imino)acenaphthylen-1(2H)-one]
melting point: 220 to 222 °C
